For nine compounds, DC50 and Dmax results are on record in US20260317324A1, “BIFUNCTIONAL COMPOUNDS FOR DEGRADING BRAF VIA UBIQUITIN PROTEOSOME PATHWAY” (Nurix Therapeutics, Inc., priority 2023, published 2026).

Molecules are shown by their SMILES. Where only a bound is given, the exact number is not on record here.

Common to all, as to type: cell-based
One assay deals with T1, BRAF V600E (Homo sapiens, UniProt P15056, V600E).
T1 construct: endogenous C-terminal HiBiT fusion tag on BRAF V600E allele; endogenous in cells; host or cells: A375 clone 1F10 (CRISPR-Cas9 knock-in of the HiBiT tag; parental A375 from ATCC)
Nature of the assay: BRAF HiBiT degradation assay, C-terminal HiBiT-tagged BRAF V600E A375 cells (clone 1F10), Nano-Glo HiBiT Lytic assay. The following applies: for Dmax: A-375. Put shortly: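 Luminescence from the Nano-Glo HiBiT lytic read-out gave % BRAF V600E remaining versus DMSO-treated tagged cells, with untagged A375 as background. Clone 1F10 cells (10,000/well, 24 h pre-culture) received compound at 1 μM–0.01 nM in half-log steps, 0.2% DMSO; curve fits gave DC50 at Y=50, plus observed Dmax.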

The target of a further assay is T2, BRAF G469A (Homo sapiens, UniProt P15056, G469A).
T2 construct: Horizon Discovery (HCT-116 BRAF−/− cells); host or cells: HCT-116 BRAF−/− cells, clone 34, lentiviral transduction
The experiment in a line: BRAF HiBiT degradation assay, C-terminal HiBiT-tagged BRAF G469A overexpressed in HCT-116 BRAF−/− cells (clone 34), Nano-Glo HiBiT Lytic assay. Put shortly:
(§1)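 Degradation was read by Nano-Glo HiBiT lytic luminescence, normalised to DMSO-treated tagged cells with wildtype HCT-116 as background. Test cells were lentiviral clones of HCT-116 BRAF−/− carrying HiBiT-tagged mutants in RPMI/10% FBS, given compound at 0.01 nM–1 μM in duplicate. Outputs are the curve-fitted concentration giving 50% degradation and the maximal observed degradation.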

For another assay, the target named is T3, BRAF G466V (Homo sapiens, UniProt P15056, G466V).
T3 construct: Horizon Discovery (HCT-116 BRAF−/− cells); host or cells: HCT-116 BRAF−/− cells, clone 8, lentiviral transduction
Nature of the assay: BRAF HiBiT degradation assay, C-terminal HiBiT-tagged BRAF G466V overexpressed in HCT-116 BRAF−/− cells (clone 8), Nano-Glo HiBiT Lytic assay. An outline of the steps:
as §1

Another assay concerns the target T4, BRAF D594G (Homo sapiens, UniProt P15056, D594G).
T4 construct: Horizon Discovery (HCT-116 BRAF−/− cells); host or cells: HCT-116 BRAF−/− cells, clone 63, lentiviral transduction
Nature of the assay: BRAF HiBiT degradation assay, C-terminal HiBiT-tagged BRAF D594G overexpressed in HCT-116 BRAF−/− cells (clone 63), Nano-Glo HiBiT Lytic assay. An outline of the steps: as §1

Where [1] appears, read: A375 (BRAF V600E, Class 1), DC50 at 50% degradation.
Where [2] appears, read: A375 (BRAF V600E, Class 1), observed Dmax, % protein degraded relative to DMSO control.
Where [3] appears, read: BRAF G469A (Class 2), HCT-116 BRAF−/− cells, DC50 at 50% degradation.
The mark [4] stands for this setting: BRAF G469A (Class 2), HCT-116 BRAF−/− cells, observed Dmax relative to DMSO control.
Where [5] appears, read: BRAF G466V (Class 3), HCT-116 BRAF−/− cells, DC50 at 50% degradation.
Setting [6] is: BRAF G466V (Class 3), HCT-116 BRAF−/− cells, observed Dmax relative to DMSO control.
[7] abbreviates: BRAF D594G (Class 3), HCT-116 BRAF−/− cells, DC50 at 50% degradation.
[8] abbreviates: BRAF D594G (Class 3), HCT-116 BRAF−/− cells, observed Dmax relative to DMSO control.
[9] abbreviates: A375 (BRAF V600E), DC50 at 50%: fitted conc. at Y=50.
Where [10] appears, read: A375 (BRAF V600E), percentage protein degraded at maximal compound effect relative to DMSO.
The mark [11] stands for this setting: Class 2, BRAF G469A, DC50 at 50%: fitted conc. at Y=50.
Setting [12] is: HCT-116, Class 2, BRAF G469A, percentage protein degraded at maximal compound effect relative to DMSO.
[13] abbreviates: BRAF G466V, DC50 at 50%: fitted conc. at Y=50.
Setting [14] is: HCT-116, BRAF G466V, percentage protein degraded at maximal compound effect relative to DMSO.
The mark [15] stands for this setting: BRAF D594G, DC50 at 50%: fitted conc. at Y=50.
The mark [16] stands for this setting: HCT-116, BRAF D594G, percentage protein degraded at maximal compound effect relative to DMSO.

T4 sequence (P15056 whole entry D594G): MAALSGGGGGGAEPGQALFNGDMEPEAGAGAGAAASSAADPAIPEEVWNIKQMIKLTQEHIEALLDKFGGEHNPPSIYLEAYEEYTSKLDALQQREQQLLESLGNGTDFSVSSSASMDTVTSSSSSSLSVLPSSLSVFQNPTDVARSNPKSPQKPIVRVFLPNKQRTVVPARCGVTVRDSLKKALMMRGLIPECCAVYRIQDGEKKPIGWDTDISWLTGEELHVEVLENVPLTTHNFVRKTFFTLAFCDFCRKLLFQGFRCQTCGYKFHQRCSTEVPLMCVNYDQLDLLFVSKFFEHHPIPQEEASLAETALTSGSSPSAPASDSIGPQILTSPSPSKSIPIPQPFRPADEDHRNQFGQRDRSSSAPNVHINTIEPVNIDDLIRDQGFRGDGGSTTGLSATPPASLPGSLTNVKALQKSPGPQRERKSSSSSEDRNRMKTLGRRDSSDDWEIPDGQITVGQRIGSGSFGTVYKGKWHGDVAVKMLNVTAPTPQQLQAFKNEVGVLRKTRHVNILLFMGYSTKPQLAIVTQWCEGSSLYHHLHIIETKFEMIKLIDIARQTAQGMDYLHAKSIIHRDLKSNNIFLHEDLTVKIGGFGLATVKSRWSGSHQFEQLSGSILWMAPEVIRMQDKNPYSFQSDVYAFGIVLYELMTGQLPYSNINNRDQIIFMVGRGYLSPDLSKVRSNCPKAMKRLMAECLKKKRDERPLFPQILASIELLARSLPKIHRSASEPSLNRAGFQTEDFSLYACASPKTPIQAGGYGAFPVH
T1 sequence (P15056 whole entry V600E, the tested form may be a part): as the sequence (P15056 whole entry D594G) above, with G594D, V600E counted along it
T3 sequence (P15056 whole entry G466V): as the sequence (P15056 whole entry D594G) above, with G466V, G594D counted along it
T2 sequence (P15056 whole entry G469A): as the sequence (P15056 whole entry D594G) above, with G469A, G594D counted along it

Consider `C[C@@H]1CN(c2ccc(-n3cc(-c4cc(Cl)cc(NS(=O)(=O)N5CC[C@@H](F)C5)c4F)c(-c4ccncc4)n3)nc2)CCN1CC1CCN(c2ccc(N3CCC(=O)NC3=O)cc2)CC1` [Compound 322, (3R)—N-[5-chloro-3-(1-{5-[(3R)-4-({1-[4-(2,4-dioxo-1,3-diazinan-1-yl)phenyl]piperidin-4-yl}methyl)-3-methylpiperazin-1-yl]pyridin-2-yl}-3-(pyridin-4-yl)-1H-pyrazol-4-yl)-2-fluorophenyl]-3-fluoropyrrolidine-1-sulfonamide], for which the DC50 at BRAF V600E (setting [1]) is below 0.01 µM; at BRAF G469A (setting [3]), 0.05 to 0.5 µM; at BRAF G466V (setting [5]) it was below 0.01 µM; at BRAF D594G (setting [7]), below 0.01 µM. The maximal degradation (Dmax) is above 70% on BRAF V600E (setting [2]), 30 to 70% on BRAF G469A (setting [4]), 30 to 70% on BRAF G466V (setting [6]) and 30 to 70% at BRAF D594G (setting [8]).
As for `O=C1CC[C@H](c2ccc(N3CCC(CN4CCN(c5ccc(-n6cc(-c7cc(Cl)cc(NS(=O)(=O)N8CC[C@@H](F)C8)c7F)c(-c7ccncc7)n6)cc5F)CC4)CC3)cc2)C(=O)N1` [Compound 367, (3R)—N-{5-chloro-3-[1-(4-{4-[(1-{4-[(3R)-2,6-dioxopiperidin-3-yl]phenyl}piperidin-4-yl)methyl]piperazin-1-yl}-3-fluorophenyl)-3-(pyridin-4-yl)-1H-pyrazol-4-yl]-2-fluorophenyl}-3-fluoropyrrolidine-1-sulfonamide], the DC50 on BRAF V600E (setting [1]), at BRAF G469A (setting [3]), on BRAF G466V (setting [5]) and on BRAF D594G (setting [7]) was below 0.01 µM throughout. Also, the Dmax at BRAF V600E (setting [2]), at BRAF G469A (setting [4]), at BRAF G466V (setting [6]) and on BRAF D594G (setting [8]) was above 70% each time.
As to `CCCS(=O)(=O)Nc1cccc(-c2nc(C3CCN(C(=O)C4CCN(CC5CCN(c6ccc(C7CCC(=O)NC7=O)cn6)CC5)CC4)CC3)sc2-c2ccncn2)c1F` (racemic) [Compound 221, Rac-N-{3-[2-(1-{1-[(1-{5-[(3R)-2,6-dioxopiperidin-3-yl]pyridin-2-yl}piperidin-4-yl)methyl]piperidine-4-carbonyl}piperidin-4-yl)-5-(pyrimidin-4-yl)-1,3-thiazol-4-yl]-2-fluorophenyl}propane-1-sulfonamide], the DC50 on BRAF V600E (setting [9]) was 0.01 to 0.05 µM; on BRAF G469A (setting [11]), above 0.5 µM; on BRAF G466V (setting [13]), above 0.5 µM; at BRAF D594G (setting [15]), above 0.5 µM. For the same compound, the Dmax at BRAF V600E (setting [10]) is above 70%; at BRAF G469A (setting [12]) it was 30 to 70%; at BRAF G466V (setting [14]), 30 to 70%; at BRAF D594G (setting [16]) it was 30 to 70%.
Regarding `CCC(C)S(=O)(=O)Nc1cc(Cl)cc(-c2cn(-c3ccc(N4CCN(CC5CCN(c6ccc([C@H]7CCC(=O)NC7=O)cn6)CC5)CC4)cc3)nc2-c2ccncc2)c1F` (mixture of isomers) [Compound 327, (RS)—N-(5-chloro-3-(1-(4-(4-((1-(5-((R)-2,6-dioxopiperidin-3-yl)pyridin-2-yl)piperidin-4-yl)methyl)piperazin-1-yl)phenyl)-3-(pyridin-4-yl)-1H-pyrazol-4-yl)-2-fluorophenyl)butane-2-sulfonamide], the DC50 at BRAF V600E (setting [1]) is below 0.01 µM; at BRAF G469A (setting [3]), 0.01 to 0.05 µM; at BRAF G466V (setting [5]), below 0.01 µM; at BRAF D594G (setting [7]), below 0.01 µM. The Dmax on BRAF V600E (setting [2]), at BRAF G469A (setting [4]), on BRAF G466V (setting [6]) and on BRAF D594G (setting [8]) was above 70% in each case.
Regarding `O=C1CC[C@H](c2ccc(N3CCC(CN4CCN(c5ccc(-n6cc(-c7cc(Cl)cc(NS(=O)(=O)N8CCCC8)c7F)c(-c7ccncc7)n6)cc5F)CC4)CC3)cc2)C(=O)N1` [Compound 364, N-{5-chloro-3-[1-(4-{4-[(1-{4-[(3R)-2,6-dioxopiperidin-3-yl]phenyl}piperidin-4-yl)methyl]piperazin-1-yl}-3-fluorophenyl)-3-(pyridin-4-yl)-1H-pyrazol-4-yl]-2-fluorophenyl}pyrrolidine-1-sulfonamide], the DC50 was 0.01 to 0.05 µM on BRAF V600E (setting [1]), 0.01 to 0.05 µM on BRAF G469A (setting [3]), below 0.01 µM on BRAF G466V (setting [5]) and below 0.01 µM at BRAF D594G (setting [7]). Also, the Dmax on BRAF V600E (setting [2]), on BRAF G469A (setting [4]), at BRAF G466V (setting [6]) and on BRAF D594G (setting [8]) was above 70% each time.
Take `CCCS(=O)(=O)Nc1cccc(-c2nc(C(C)(C)C)sc2-c2ccnc(Nc3cccc(OC4CCN(CC[C@@H]5CCN(c6ccc(C7CCC(=O)NC7=O)cn6)C5)CC4)c3)n2)c1F` (mixture of isomers) [Compound 70, N-(3-{2-tert-butyl-5-[2-({3-[(1-{2-[(3R)-1-{5-[(3RS)-2,6-dioxopiperidin-3-yl]pyridin-2-yl}pyrrolidin-3-yl]ethyl}piperidin-4-yl)oxy]phenyl}amino)pyrimidin-4-yl]-1,3-thiazol-4-yl}-2-fluorophenyl)propane-1-sulfonamide]: the DC50 on BRAF V600E (setting [9]) is 0.05 to 0.5 µM; at BRAF G469A (setting [11]) it was above 0.5 µM; on BRAF G466V (setting [13]) it was above 0.5 µM; at BRAF D594G (setting [15]), above 0.5 µM. The Dmax on BRAF V600E (setting [10]) is 30 to 70%; on BRAF G469A (setting [12]), below 30%; at BRAF G466V (setting [14]) it was below 30%; at BRAF D594G (setting [16]), 30 to 70%.
On to `CCCS(=O)(=O)Nc1cccc(-c2nc(C(C)(C)C)sc2-c2ccnc(Nc3ccc(C4CCN(CC[C@H]5CCN(c6ccc(C7CCC(=O)NC7=O)cn6)C5)CC4)cc3)n2)c1F` (mixture of isomers) [Compound 173, N-{3-[2-tert-butyl-5-(2-{[4-(1-{2-[(3S)-1-{5-[(3RS)-2,6-dioxopiperidin-3-yl]pyridin-2-yl}pyrrolidin-3-yl]ethyl}piperidin-4-yl)phenyl]amino}pyrimidin-4-yl)-1,3-thiazol-4-yl]-2-fluorophenyl}propane-1-sulfonamide], for which the DC50 on BRAF V600E (setting [9]) was 0.01 to 0.05 µM; on BRAF G469A (setting [11]) it was above 0.5 µM; on BRAF G466V (setting [13]), above 0.5 µM; at BRAF D594G (setting [15]), above 0.5 µM. Further, the Dmax is above 70% at BRAF V600E (setting [10]), below 30% on BRAF G469A (setting [12]), 30 to 70% at BRAF G466V (setting [14]) and 30 to 70% on BRAF D594G (setting [16]).
`CCCS(=O)(=O)Nc1cccc(-c2nc(C3CCN(C(=O)C4CCN(C(=O)C5CCN(c6ccc(C7CCC(=O)NC7=O)cn6)CC5)CC4)CC3)sc2-c2ccnc(NC(C)C)n2)c1F` (racemic) [Compound 206, Rac-N-[3-(2-{1-[1-(1-{5-[(3R)-2,6-dioxopiperidin-3-yl]pyridin-2-yl}piperidine-4-carbonyl)piperidine-4-carbonyl]piperidin-4-yl}-5-{2-[(propan-2-yl)amino]pyrimidin-4-yl}-1,3-thiazol-4-yl)-2-fluorophenyl]propane-1-sulfonamide]: the DC50 at BRAF V600E (setting [9]) was below 0.01 µM; at BRAF G469A (setting [11]) it was above 0.5 µM; at BRAF G466V (setting [13]), 0.01 to 0.05 µM; at BRAF D594G (setting [15]), below 0.01 µM. For the same compound, the Dmax at BRAF V600E (setting [10]) is above 70%; at BRAF G469A (setting [12]), 30 to 70%; on BRAF G466V (setting [14]), 30 to 70%; at BRAF D594G (setting [16]), 30 to 70%.
As for `CCCS(=O)(=O)Nc1cccc(-c2nc(C(C)(C)C)sc2-c2ccnc(Nc3ccc(N4CCN(CC5CCN(c6ccc([C@H]7CCC(=O)NC7=O)cc6)CC5)CC4)c(F)c3)n2)c1F` [Compound 87, N-[3-(2-tert-butyl-5-{2-[(4-{4-[(1-{4-[(3R)-2,6-dioxopiperidin-3-yl]phenyl}piperidin-4-yl)methyl]piperazin-1-yl}-3-fluorophenyl)amino]pyrimidin-4-yl}-1,3-thiazol-4-yl)-2-fluorophenyl]propane-1-sulfonamide], the DC50 is 0.01 to 0.05 µM on BRAF V600E (setting [9]), above 0.5 µM on BRAF G469A (setting [11]), 0.01 to 0.05 µM at BRAF G466V (setting [13]) and above 0.5 µM on BRAF D594G (setting [15]). Besides, the Dmax is above 70% on BRAF V600E (setting [10]), 30 to 70% at BRAF G469A (setting [12]), 30 to 70% on BRAF G466V (setting [14]) and 30 to 70% on BRAF D594G (setting [16]).
